Results on one substance are retold here after US20130202586A1, “STEM CELL THERAPY USING INHIBITORS OF LYSOPHOSPHATIDIC ACID” (priority 2011, published 2013).

The test system of assay [1] is noggin-treated cells (human NSC). Nature of the assay: Neurosphere formation from noggin-treated human embryonic stem cells. Conditions: 5-7 days. The assay is classed as cell-based. Here is the method: (§1) Neurospheres were formed and cultured as described in Dottori, M. et al. (2008), supra. Briefly, human embryonic stem cells (HES-2, HES-3, and HES-4, WiCell Research Institute, Madison Wis.) were cultured according to previously published methods. Neuronal induction using noggin was performed according to published methods and after growth and subculture, cells were grown as neurospheres in the presence of growth factors. Neurospheres could be plated on dishes coated with laminin or fibronectin. When plated onto laminin and cultured with neural basal medium (NBM, R&D Systems, Minneapolis Minn.), neurospheres typically differentiate into neurons. Quantitation of neuron-forming spheres (a measure of neuronal differentiation) was done by counting the number of neurospheres from which neuronal outgrowth was visible.
Plated neurospheres were incubated in the presence or absence of LPA (Sigma Aldrich, St. Louis, Mo.) and/or antibody (concentrations shown) for 5 days. Dilutions of LPA were made in 0.1% fatty acid-free bovine serum albumin (final concentration 0.01% BSA).
As shown by Dottori et al., LPA inhibits the ability of NSC to form neurospheres, even in the presence of bFGF and EGF. […] […] Dottori, M. et al. (2008), supra. […]

Assay [2] relates to plated neurospheres (human NSC). The assay can be described thus: Neuronal differentiation: neuron-forming neurospheres. The assay is classed as cell-based. Here is the method: as §1
[…] […] Dilutions of LPA were made in 0.1% fatty acid-free bovine serum albumin (final concentration 0.01% BSA).
The effect of LPA on an additional differentiation step, the differentiation of NSC toward mature cells, was also measured. When plated on laminin in NBM, neurospheres typically differentiate into neurons, as assayed by visible neurons, elongated cell shape and/or positive staining for β-tubulin.
Using the same conditions used in Example 2 for LPA treatment alone, plated neurospheres were treated with 10 μM LPA alone, or with anti-LPA antibody B3 or B7 (1 mg/ml) alone, or with 10 μM LPA in combination with 1 mg/ml of antibody B3 or B7. Similarly, cells were treated with 10 μM LPA alone, humanized anti-LPA antibody LT3015 alone (1 mg/ml) or with 10 μM LPA in combination with 1 mg/ml LT3015. The percent of neuron-forming neurospheres was quantitated as in Example 2 (beta-tubulin staining and quantification of neuron-forming spheres, as described in Dottori, et al (2008)). […] Neurosphere samples treated with B3 antibody alone had neuron-forming neurospheres equivalent to control (100%). […] The antibody B7, under similar conditions, had little to no effect in this experiment (37.00±5.31% of control). […]

Assay [3] has as its system adult mouse NSC. The assay can be described thus: Neuronal differentiation of adult mouse NSC. The assay is classed as cell-based. From the text: However, and similarly to data obtained in human NSC, LPA inhibited the neuronal differentiation of adult mouse NSC by maintaining them as NSC when plated in conditions normally inducing neuronal differentiation. […] These effects were independent of apoptosis or proliferation.

Assay [4] relates to noggin-treated cells (human NSC). The note with it: 10 μM LPA, 11-14 days, Dottori et al.; cited from earlier work.
The subject of assay [5] is plated neurospheres (human NSC). The note with it: 10 μM LPA, Dottori et al.; cited from earlier work.

For lysophosphatidic acid [LPA], the “% neurosphere formation” value is 13.500±5.590% in assay [1] (10 μM LPA) and 50±12.50% in assay [1] (LPA at 1 μM). For the same substance, in assay [2] (Example 4, 10 μM LPA alone), the “neuron-forming neurospheres, % of untreated control” value was “approximately 25.00±6.45%”. Moreover, in assay [2] (Example 5, 3 days, 10 μM LPA alone), the “neuron-forming spheres, % of control” value is “approximately 26%”. Also, the “neuron-forming neurospheres, pool of data” value in assay [2] (LPA alone) was 25.00±6.45%. The “neurosphere formation or growth of mouse NSC” value in assay [3] is reported as “did not modify neurosphere formation or growth”. Also, the “nestin positive, % of total cells” value in assay [3] (LPA 10 μM, three days) worked out at 87.55±3.20%. Moreover, the “βIII-tubulin expression, % of total cells” value in assay [3] (LPA 10 μM, three days) is given as 26.25±2.08%. Besides, the “% of cultures formed neurospheres” value in assay [4] was 13.47%±6.94. Moreover, the “neuronal cells from plated neurospheres” value in assay [5] is recorded as “did not give rise to neuronal cells”.
